Measurements from US20220110888A1, “COMPOSITION FOR THE TREATMENT OF PSORIASIS” (Charlotte's Web, Inc., priority 2020, published 2022).

Assay: Systemic exposure to CBD after dermal application

C=C(C)[C@@H]1CCC(C)=C[C@H]1c1c(O)cc(CCCCC)cc1O [CBD, cannabidiol]
reach of the bloodstream / systemic circulation: does not reach the bloodstream
